Results as given in EPA's ToxValDB 9.5 (doi:10.2903/j.efsa.2016.4604).
Values after ≈ are worked out from the molar mass of the structure shown.

Tests used:
Folsomia candida = details: chronic/long-term; duration: 28 days
Apis mellifera = details: acute, mortality
Cyprinus carpio = details: acute; duration: 96 hours; mortality
Daphnia magna = details: chronic/long-term; duration: 21 days; mobility
Colinus virginianus = details: acute, oral, mortality
Canidae = details: chronic; duration: 1 years; oral; diet; Dog Other; histopathology: nonneoplastic
Pimephales promelas = details: chronic/long-term; duration: 35 days; body weight
Tagia sp. = details: for NOEC: chronic/long-term, duration: 8 weeks
Typhlodromus pyri = test: LR50; higher = less toxic; details: not reported; mortality

SMILES | NOEC (Folsomia candida) [mg/kg] | LD50 (Apis mellifera; duration: 48 hours, dermal) [µg/piece] | LD50 (Apis mellifera; oral, unspecified) [µg/piece] | LC50 (Cyprinus carpio) [mg/L] | NOEC (Daphnia magna) [mg/L] | LD50 (Colinus virginianus; diet) [mg/kg-day] | LD50 (Colinus virginianus) [mg/kg-day] | NOAEL (Rattus norvegicus; acute, oral, F, clinical signs) [mg/kg-day] | LD50 (Rattus norvegicus; acute, oral, mortality) [mg/kg-day] | NOAEL (Rattus norvegicus; chronic, duration: 2 years, oral, diet, histopathology: nonneoplastic) [mg/kg-day] | NOAEL (Rattus norvegicus; reproduction developmental, M, body weight) [mg/kg-day] | NOAEL (Canidae) [mg/kg-day] | NOEC (Pimephales promelas) [µg/L] | LC50 (Tagia sp.; acute, duration: 14 days, mortality) [mg/kg] | NOEC (Tagia sp.) [mg/kg] | LR50 (Typhlodromus pyri) [g/ha]
Cc1nn(C)c(F)c1C(=O)Nc1ccccc1C(C)CC(C)C (configuration not stated) [Penflufen] | 231 | > 100 | > 105 | 0.103 (≈ 0.325 µM) | 1.53 | > 1700 | > 4000 | 50 | > 2000 | 4 | 58 | 7.7 | 23.4 | > 1000 | 33 | > 250
CC(=O)c1ccccc1NC(=O)c1c(C)nn(C)c1F | 1000 |  |  | > 0.799 |  |  |  |  |  |  |  |  |  |  | 500 | 
Cc1nn(C)c(F)c1C(=O)Nc1ccccc1C(C)CC(C)(C)O (configuration not stated) | 1000 |  |  | > 15.7 |  |  |  |  |  |  |  |  |  |  | 1000 | 
